Experimental data: US12077503B2, “Substituted cyclic amides and their use as herbicides” (FMC CORPORATION, priority 2015, dated 2024)

What was measured:
Assay type in all cases: in vivo
[1] = tested on: barnyardgrass (Echinochloa crus-galli); assay: Test B flooded paddy test; conditions: Flood, 0 to 100 scale where 0 is no effect and 100 is complete control, 13 to 15 d
How it was run: (§1)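 Flooding to 3 cm over soil accompanied treatment, which consisted of adding compound to the standing water around 2-leaf plants; depth was then maintained. Visual assessment versus controls followed at 13 to 15 d (scale 0–100, 0 meaning no effect).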

[2] = tested on: ducksalad (Heteranthera limosa); assay: Test B flooded paddy test; conditions: Flood, 0 to 100 scale where 0 is no effect and 100 is complete control, 13 to 15 d
How it was run: as §1

[3] = tested on: sedge, umbrella (small-flower umbrella sedge, Cyperus difformis); assay: Test B flooded paddy test; conditions: Flood, 0 to 100 scale where 0 is no effect and 100 is complete control, 13 to 15 d
How it was run: as §1

rice (Oryra sativa) = assay: Test B flooded paddy test; conditions: Flood, 0 to 100 scale where 0 is no effect and 100 is complete control, 13 to 15 d
How it was run: as §1

[4] = tested on: pigweed (Amaranthus retroflexus); assay: Test A postemergence; conditions: for Pigweed plant response rating: visual injury rating on 0 to 100 scale (0 no effect, 100 complete control)
How it was run: (§2)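 Seeds sprayed preemergence with a directed soil spray, or plants at 2 to 10 cm height and one- to two-leaf stage sprayed postemergence, with test chemicals in a non-phytotoxic solvent mixture containing surfactant, in loam soil–sand blend. Injury rated visually against untreated controls after about 10 d in greenhouse, 0 (no effect) to 100 (complete control).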

[5] = tested on: barnyardgrass (Echinochloa crus-galli); assay: Test A postemergence; conditions: for Barnyardgrass plant response rating: visual injury rating on 0 to 100 scale (0 no effect, 100 complete control)
How it was run: as §2

[6] = tested on: giant foxtail (Setaria faberii); assay: Test A postemergence; conditions: for Foxtail, Giant plant response rating: visual injury rating on 0 to 100 scale (0 no effect, 100 complete control)
How it was run: as §2

[7] = tested on: Galium (catchweed bedstraw, Galium aparine); assay: Test A postemergence; conditions: for Galium plant response rating: visual injury rating on 0 to 100 scale (0 no effect, 100 complete control)
How it was run: as §2

[8] = tested on: ragweed (common ragweed, Ambrosia elatior); assay: Test A postemergence; conditions: for Ragweed plant response rating: visual injury rating on 0 to 100 scale (0 no effect, 100 complete control)
How it was run: as §2

[9] = tested on: ryegrass, Italian (Italian ryegrass, Lolium multiflorum); assay: Test A postemergence; conditions: for Ryegrass, Italian plant response rating: visual injury rating on 0 to 100 scale (0 no effect, 100 complete control)
How it was run: as §2

[10] = tested on: blackgrass (Alopecurus myosuroides); assay: Test A postemergence; conditions: for Blackgrass plant response rating: visual injury rating on 0 to 100 scale (0 no effect, 100 complete control)
How it was run: as §2

corn (Zea mays) = assay: Test A postemergence; conditions: for Corn plant response rating: visual injury rating on 0 to 100 scale (0 no effect, 100 complete control)
How it was run: as §2

[11] = tested on: wheat (Triticum aestivum); assay: Test A postemergence; conditions: for Wheat plant response rating: visual injury rating on 0 to 100 scale (0 no effect, 100 complete control)
How it was run: as §2

Kochia (Kochia scoparia) [12] = assay: Test A postemergence; conditions: for Kochia plant response rating: visual injury rating on 0 to 100 scale (0 no effect, 100 complete control)
How it was run: as §2

[13] = tested on: pigweed (Amaranthus retroflexus); assay: Test A preemergence; conditions: for Plant response rating, Pigweed: 125 g ai/ha, preemergence, 0 to 100 scale (0 no effect, 100 complete control); for Pigweed plant response rating (0 to 100 scale) / Pigweed plant response rating (0 to 100 scale, 0 is no effect, 100 is complete control): Preemergence, 500 g ai/ha; for Pigweed plant response rating (0 to 100 scale): 0 is no effect, 100 is complete control; for Pigweed plant response rating (0 to 100 scale, 0 is no effect, 100 is complete control): visual injury approx. 10 d
[14] = tested on: barnyardgrass (Echinochloa crus-galli); assay: Test A preemergence; conditions: for Plant response rating, Barnyardgrass: 125 g ai/ha, preemergence, 0 to 100 scale (0 no effect, 100 complete control); for Barnyardgrass plant response rating (0 to 100 scale) / Barnyardgrass plant response rating (0 to 100 scale, 0 is no effect, 100 is complete control): Preemergence, 500 g ai/ha; for Barnyardgrass plant response rating (0 to 100 scale): 0 is no effect, 100 is complete control; for Barnyardgrass plant response rating (0 to 100 scale, 0 is no effect, 100 is complete control): visual injury approx. 10 d
How it was run: as §2

[15] = tested on: giant foxtail (Setaria faberii); assay: Test A preemergence; conditions: for Plant response rating, Foxtail, Giant: 125 g ai/ha, preemergence, 0 to 100 scale (0 no effect, 100 complete control); for Foxtail, Giant plant response rating (0 to 100 scale) / Foxtail, Giant plant response rating (0 to 100 scale, 0 is no effect, 100 is complete control): Preemergence, 500 g ai/ha; for Foxtail, Giant plant response rating (0 to 100 scale): 0 is no effect, 100 is complete control; for Foxtail, Giant plant response rating (0 to 100 scale, 0 is no effect, 100 is complete control): visual injury approx. 10 d
How it was run: as §2

[16] = tested on: ragweed (common ragweed, Ambrosia elatior); assay: Test A preemergence; conditions: for Plant response rating, Ragweed: 125 g ai/ha, preemergence, 0 to 100 scale (0 no effect, 100 complete control); for Ragweed plant response rating (0 to 100 scale) / Ragweed plant response rating (0 to 100 scale, 0 is no effect, 100 is complete control): Preemergence, 500 g ai/ha; for Ragweed plant response rating (0 to 100 scale): 0 is no effect, 100 is complete control; for Ragweed plant response rating (0 to 100 scale, 0 is no effect, 100 is complete control): visual injury approx. 10 d
How it was run: as §2

[17] = tested on: ryegrass, Italian (Italian ryegrass, Lolium multiflorum); assay: Test A preemergence; conditions: for Plant response rating, Ryegrass, Italian: 125 g ai/ha, preemergence, 0 to 100 scale (0 no effect, 100 complete control); for Ryegrass, Italian plant response rating (0 to 100 scale) / Ryegrass, Italian plant response rating (0 to 100 scale, 0 is no effect, 100 is complete control): Preemergence, 500 g ai/ha; for Ryegrass, Italian plant response rating (0 to 100 scale): 0 is no effect, 100 is complete control; for Ryegrass, Italian plant response rating (0 to 100 scale, 0 is no effect, 100 is complete control): visual injury approx. 10 d
How it was run: as §2

Kochia (Kochia scoparia) [18] = assay: Test A preemergence; conditions: for Plant response rating, Kochia: 125 g ai/ha, preemergence, 0 to 100 scale (0 no effect, 100 complete control); for Kochia plant response rating (0 to 100 scale) / Kochia plant response rating (0 to 100 scale, 0 is no effect, 100 is complete control): Preemergence, 500 g ai/ha; for Kochia plant response rating (0 to 100 scale): 0 is no effect, 100 is complete control; for Kochia plant response rating (0 to 100 scale, 0 is no effect, 100 is complete control): visual injury approx. 10 d
How it was run: as §2

[19] = 125 g ai/ha, postemergence, approx. 10 d
[20] = 500 g ai/ha, postemergence, 0 to 100 scale, 0 no effect, 100 complete control
[21] = Postemergence, 125 g ai/ha, visual injury, 0 to 100 scale (0 no effect, 100 complete control), approx. 10 d

Compound	Pigweed plant response rating [4, 19]	Plant response rating, Pigweed [4, 20]	Plant response rating, Barnyardgrass [5, 20]	Foxtail, Giant plant response rating [6, 19]	Plant response rating, Foxtail, Giant [6, 20]	Galium plant response rating [7, 19]	Plant response rating, Galium [7, 20]	Ragweed plant response rating [8, 19]	Plant response rating, Ragweed [8, 20]	Plant response rating, Ryegrass, Italian [9, 20]	Plant response rating, Blackgrass [10, 20]	Plant response rating, Corn (corn (Zea mays); [20])	Plant response rating, Wheat [11, 20]	Plant response rating, Kochia (Kochia (Kochia scoparia) [12]; [20])	Plant response rating, Pigweed [13]	Plant response rating, Barnyardgrass [14]	Plant response rating, Foxtail, Giant [15]	Plant response rating, Ragweed [16]	Plant response rating, Ryegrass, Italian [17]	Plant response rating, Kochia (Kochia (Kochia scoparia) [18])	other results
O=C1NCC(c2cccc(OCC(F)F)c2)C1C(=O)Nc1ccc(F)cc1F (stereo not drawn) [Compound 388]	0	0	70	50	80	0	30	0	0	0	50	0	0	0	0	60	80	0	0	0	Plant response rating, Barnyardgrass ([1]; 500 g ai/ha): 0; Plant response rating, Ducksalad ([2]; 500 g ai/ha): 75; Plant response rating, Sedge, Umbrella ([3]; 500 g ai/ha): 0; Plant response rating, Rice (rice (Oryra sativa); 500 g ai/ha): 0; Plant response rating, Barnyardgrass [5, 21]: 30; Ryegrass, Italian plant response rating [9, 19]: 0; Plant response rating, Blackgrass [10, 21]: 10; Corn plant response rating (corn (Zea mays); [19]): 0; Wheat plant response rating [11, 19]: 0; Kochia plant response rating (Kochia (Kochia scoparia) [12]; [19]): 0; Pigweed plant response rating (0 to 100 scale) [13]: 0; Barnyardgrass plant response rating (0 to 100 scale) [14]: 80; Foxtail, Giant plant response rating (0 to 100 scale) [15]: 90; Ragweed plant response rating (0 to 100 scale) [16]: 0; Ryegrass, Italian plant response rating (0 to 100 scale) [17]: 0; Kochia plant response rating (0 to 100 scale) (Kochia (Kochia scoparia) [18]): 0
CCCOc1cccc(C2CNC(=O)C2C(=O)Nc2cccc(F)c2F)c1 (racemic) [Compound 380]	–	0	80	–	70	–	50	–	0	0	40	0	20	0	0	70	50	0	0	0	Plant response rating, Barnyardgrass ([1]; 250 g ai/ha): 0; Plant response rating, Ducksalad ([2]; 250 g ai/ha): 0; Plant response rating, Sedge, Umbrella ([3]; 250 g ai/ha): 0; Plant response rating, Rice (rice (Oryra sativa); 250 g ai/ha): 0; Plant response rating, Pigweed [4, 21]: 0; Plant response rating, Barnyardgrass [5, 21]: 50; Plant response rating, Foxtail, Giant [6, 21]: 30; Plant response rating, Galium [7, 21]: 20; Plant response rating, Ragweed [8, 21]: 0; Plant response rating, Ryegrass, Italian [9, 21]: 0; Plant response rating, Blackgrass [10, 21]: 30; Plant response rating, Corn (corn (Zea mays); [21]): 0; Plant response rating, Wheat [11, 21]: 0; Plant response rating, Kochia (Kochia (Kochia scoparia) [12]; [21]): 0; Pigweed plant response rating (0 to 100 scale) [13]: 30; Barnyardgrass plant response rating (0 to 100 scale) [14]: 90; Foxtail, Giant plant response rating (0 to 100 scale) [15]: 90; Ragweed plant response rating (0 to 100 scale) [16]: 0; Ryegrass, Italian plant response rating (0 to 100 scale) [17]: 20; Kochia plant response rating (0 to 100 scale) (Kochia (Kochia scoparia) [18]): 40
O=C1NCC(c2ccc(Br)cc2)C1C(=O)Nc1ccccc1Cl (stereo not drawn) [Compound 453]	0	0	80	80	80	30	40	0	0	0	30	40	30	30	20	80	90	0	0	0	Plant response rating, Barnyardgrass ([1]; 250 g ai/ha): 30; Plant response rating, Ducksalad ([2]; 250 g ai/ha): 95; Plant response rating, Sedge, Umbrella ([3]; 250 g ai/ha): 0; Plant response rating, Rice (rice (Oryra sativa); 250 g ai/ha): 0; Barnyardgrass plant response rating [5, 19]: 80; Ryegrass, Italian plant response rating [9, 19]: 0; Blackgrass plant response rating [10, 19]: 0; Corn plant response rating (corn (Zea mays); [19]): 0; Wheat plant response rating [11, 19]: 0; Kochia plant response rating (Kochia (Kochia scoparia) [12]; [19]): 20; Pigweed plant response rating (0 to 100 scale, 0 is no effect, 100 is complete control) [13]: 30; Barnyardgrass plant response rating (0 to 100 scale, 0 is no effect, 100 is complete control) [14]: 90; Foxtail, Giant plant response rating (0 to 100 scale, 0 is no effect, 100 is complete control) [15]: 90; Ragweed plant response rating (0 to 100 scale, 0 is no effect, 100 is complete control) [16]: 20; Ryegrass, Italian plant response rating (0 to 100 scale, 0 is no effect, 100 is complete control) [17]: 0; Kochia plant response rating (0 to 100 scale, 0 is no effect, 100 is complete control) (Kochia (Kochia scoparia) [18]): 30
O=C(Nc1cccc(F)c1F)C1C(=O)N(c2ccccc2)CC1c1cccc(C(F)(F)F)c1 (stereo not drawn) [Compound 457]	0	0	0	0	0	0	0	0	0	0	0	0	0	0	0	0	0	0	0	0	Plant response rating, Barnyardgrass ([1]; 250 g ai/ha): 0; Plant response rating, Ducksalad ([2]; 250 g ai/ha): 0; Plant response rating, Sedge, Umbrella ([3]; 250 g ai/ha): 0; Plant response rating, Rice (rice (Oryra sativa); 250 g ai/ha): 0; Barnyardgrass plant response rating [5, 19]: 0; Ryegrass, Italian plant response rating [9, 19]: 0; Blackgrass plant response rating [10, 19]: 0; Corn plant response rating (corn (Zea mays); [19]): 0; Wheat plant response rating [11, 19]: 0; Kochia plant response rating (Kochia (Kochia scoparia) [12]; [19]): 0; Pigweed plant response rating (0 to 100 scale, 0 is no effect, 100 is complete control) [13]: 0; Barnyardgrass plant response rating (0 to 100 scale, 0 is no effect, 100 is complete control) [14]: 0; Foxtail, Giant plant response rating (0 to 100 scale, 0 is no effect, 100 is complete control) [15]: 0; Ragweed plant response rating (0 to 100 scale, 0 is no effect, 100 is complete control) [16]: 0; Ryegrass, Italian plant response rating (0 to 100 scale, 0 is no effect, 100 is complete control) [17]: 0; Kochia plant response rating (0 to 100 scale, 0 is no effect, 100 is complete control) (Kochia (Kochia scoparia) [18]): 0
